Experimental data reported in the supplement of paper PMC8671470.

Columns and labels:
Details in all cases: 72 h
[1] = test system: HL-60; assay: area under dose-response curve (viability, 1 nM-10 uM) (fraction (0-1)); higher = more sensitive
Method in brief: (§1)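 Area under the curve, where listed, was derived from four-parameter log-logistic fits with drc and PharmacoGx. These fits used CellTiter-Glo viability from HL-60 cells in RPMI 1640 with 10% FBS, normalised to DMSO wells and wells holding 10 μM proteasome inhibitor. The full library was rescreened on 384-well plates in duplicate at five tenfold concentrations, 1–10,000 nM, with DMSO or 100 nM of one of three metabolic inhibitors, for 72 h at 37 °C, 5% CO2.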

[2] = test system: HL-60; assay: cell viability (% survival relative to DMSO control); higher = less cytotoxic
Method in brief: as §1

[3] = test system: KCL-22
Method in brief: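 Fifteen myeloid leukaemia lines were incubated for 72 h at 37 °C with 5% CO2 across five tenfold doses from 1 to 10,000 nM, in duplicate. ATP luminescence was normalised to vehicle and to a positive control at 10 µM and fitted with a four-parameter log-logistic model. The IC50 came from these dose–response fits.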

[4] = test system: BV-173; assay: cell viability (% survival relative to DMSO control, bortezomib = 0%); higher = less cytotoxic
Method in brief: (§2)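 Percent survival figures are means of duplicate wells. They were obtained by CellTiter-Glo luminescence after 10 AML and 5 CML cell lines spent 72 h at 37 °C with 5% CO2 in 384-well plates with compounds at 1, 10, 100, 1000 or 10000 nM. Vehicle was set to 100% and a 10 µM positive control to 0%.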

[5] = test system: KU-812; assay: as above
Method in brief: as §2

[6] = test system: SHI-1; assay: as above
Method in brief: as §2

[7] = test system: HL-60; assay: as above
Method in brief: as §2

[8] = test system: ML-2; assay: as above
Method in brief: as §2

[9] = test system: KG-1; assay: as above
Method in brief: as §2

[10] = test system: MV4-11; assay: as above
Method in brief: as §2

[11] = test system: LAMA-84; assay: as above
Method in brief: as §2

[12] = test system: NOMO-1; assay: as above
Method in brief: as §2

[13] = test system: Mono-Mac-6; assay: as above
Method in brief: as §2

[14] = test system: THP-1; assay: as above
Method in brief: as §2

[15] = test system: HEL; assay: as above
Method in brief: as §2

[16] = test system: MOLM-13; assay: as above
Method in brief: as §2

[17] = test system: K-562; assay: as above
Method in brief: as §2

[18] = test system: KCL-22; assay: as above
Method in brief: as §2

CN(C)CCNC(=O)c1cccn2c(=O)c3cc4ccccc4cc3nc12 [Bmh-21]
Details	area under dose-response curve, co-treatment: AZD3965 100 nM	area under dose-response curve, co-treatment: DMSO vehicle	area under dose-response curve, co-treatment: GSK2194069 100 nM	cell viability, 1 nM [%]	cell viability, 10 nM [%]	cell viability, 100 nM [%]	cell viability, 1000 nM [%]	cell viability, 10000 nM [%]
[1]	0.0645	0.0352	0.0524	–	–	–	–	–
[4]	–	–	–	105	98.6	95.8	-0.204	-0.415
[5]	–	–	–	98.1	105	108	15.5	-0.163
[6]	–	–	–	108	102	81.7	94	53.7
[7]	–	–	–	102	108	93.6	107	77.7
[8]	–	–	–	111	106	99.4	-0.0196	-0.0121
[9]	–	–	–	104	101	104	9.79	0.81
[10]	–	–	–	107	85.5	90.4	78.8	11.1
[11]	–	–	–	103	107	95.2	21.2	1.47
[12]	–	–	–	106	101	101	45.9	-0.0945
[13]	–	–	–	89.8	101	106	0.313	0.0551
[14]	–	–	–	102	96.4	104	45.1	-0.241
[15]	–	–	–	110	93.8	93.8	8	0.459
[16]	–	–	–	123	92.6	102	87.6	22.1
[17]	–	–	–	108	84.5	94.1	92.9	44.3
[18]	–	–	–	115	113	98.7	0.317	0.85

cell viability [%], [2]
Details	0.001 µM	0.01 µM	0.1 µM	1 µM	10 µM
co-treatment: AZD3965 100 nM	97.56	95.3	101	91.9	48.8
co-treatment: DMSO vehicle	101.2	98.3	102	98.4	74.2
co-treatment: GSK2194069 100 nM	98.9	102	101	94.5	66
co-treatment: pictilisib 100 nM	94.2	100.6	104	85.7	73.8

Details	IC50 (cell viability) [µM]
[3]	0.312

COc1ccc2c(c1)c(CC(=O)O)c(C)n2C(=O)c1ccc(Cl)cc1 [Indomethacine]
Details	area under dose-response curve, co-treatment: AZD3965 100 nM	area under dose-response curve, co-treatment: DMSO vehicle	area under dose-response curve, co-treatment: GSK2194069 100 nM	area under dose-response curve, co-treatment: pictilisib 100 nM	cell viability, 1 nM [%]	cell viability, 10 nM [%]	cell viability, 100 nM [%]	cell viability, 1000 nM [%]	cell viability, 10000 nM [%]
[1]	< 0.0301	< 0.0301	< 0.0301	< 0.0301	–	–	–	–	–
[4]	–	–	–	–	89.5	94.1	105	112	81.8
[5]	–	–	–	–	100	101	95.6	96.4	80
[6]	–	–	–	–	120	95.3	99	94.2	94.3
[7]	–	–	–	–	124	104	100	84.6	147
[8]	–	–	–	–	108	98.3	98.4	90.4	94.1
[9]	–	–	–	–	110	106	98	99.3	97.6
[10]	–	–	–	–	86.9	82.1	102	95.3	92.2
[11]	–	–	–	–	86.4	98.5	92.9	107	91.5
[12]	–	–	–	–	98.3	107	100	110	95.7
[13]	–	–	–	–	97.9	93.8	99.8	112	92.3
[14]	–	–	–	–	100	98.8	105	110	97.8
[15]	–	–	–	–	109	92.8	94.3	92.7	95.5
[16]	–	–	–	–	105	93.7	98.2	108	94.5
[17]	–	–	–	–	95.2	101	96	103	90.4
[18]	–	–	–	–	113	84	96	110	102

cell viability [%], [2]
Details	0.001 µM	0.01 µM	0.1 µM	1 µM	10 µM
co-treatment: AZD3965 100 nM	94.5	76.1	100	103	91.6
co-treatment: DMSO vehicle	93.22	91	97.19	101	100
co-treatment: GSK2194069 100 nM	88	95.9	97.61	99.8	89.1
co-treatment: pictilisib 100 nM	90.7	87.2	93.2	97.1	88.4

Details	IC50 (cell viability) [µM]
[3]	> 10

OC[C@H]1OC(O)C[C@@H](O)[C@@H]1O (some centres undefined) [2-deoxyglucose]
Details	area under dose-response curve, co-treatment: AZD3965 100 nM	area under dose-response curve, co-treatment: DMSO vehicle	area under dose-response curve, co-treatment: GSK2194069 100 nM	area under dose-response curve, co-treatment: pictilisib 100 nM	cell viability, 1 nM [%]	cell viability, 10 nM [%]	cell viability, 100 nM [%]	cell viability, 1000 nM [%]	cell viability, 10000 nM [%]
[1]	< 0.0301	< 0.0301	< 0.0301	< 0.0301	–	–	–	–	–
[4]	–	–	–	–	126	107	109	90.4	106
[5]	–	–	–	–	105	101	101	85.1	95.5
[6]	–	–	–	–	112	105	105	93.4	98.3
[7]	–	–	–	–	82.5	92	106	102	94.7
[8]	–	–	–	–	101	110	102	89.4	96.1
[9]	–	–	–	–	111	95.2	98.9	82.6	92.9
[10]	–	–	–	–	102	91.4	100	92	110
[11]	–	–	–	–	107	114	95.6	86.3	96.8
[12]	–	–	–	–	112	100	107	87.9	93.6
[13]	–	–	–	–	65.6	99.3	102	89.4	99.2
[14]	–	–	–	–	92	96.1	105	86.9	100
[15]	–	–	–	–	123	113	112	93.3	95.1
[16]	–	–	–	–	86.7	108	93	90.1	86.4
[17]	–	–	–	–	107	117	94.2	101	99.6
[18]	–	–	–	–	110	107	107	90.6	104

cell viability [%], [2]
Details	0.001 µM	0.01 µM	0.1 µM	1 µM	10 µM
co-treatment: AZD3965 100 nM	107	110	103	103.1	103
co-treatment: DMSO vehicle	104	101	99.45	103.5	97.27
co-treatment: GSK2194069 100 nM	102	107	102	101	104
co-treatment: pictilisib 100 nM	102	109.7	99.6	104	108

Details	IC50 (cell viability) [µM]
[3]	> 10
